Where two headings read alike, the source gives them in different places.
What was measured:
human DP1 receptors = molecular target: T1, human DP1 receptors (Homo sapiens, UniProt Q13258); assay: cell-based cAMP TR-FRET assay, DP1 (agonist BW245C); conditions: for selectivity against DP1: EP2 over DP1
T1 construct: expressed in transfected cells
T1 sequence (Q13258 1-359): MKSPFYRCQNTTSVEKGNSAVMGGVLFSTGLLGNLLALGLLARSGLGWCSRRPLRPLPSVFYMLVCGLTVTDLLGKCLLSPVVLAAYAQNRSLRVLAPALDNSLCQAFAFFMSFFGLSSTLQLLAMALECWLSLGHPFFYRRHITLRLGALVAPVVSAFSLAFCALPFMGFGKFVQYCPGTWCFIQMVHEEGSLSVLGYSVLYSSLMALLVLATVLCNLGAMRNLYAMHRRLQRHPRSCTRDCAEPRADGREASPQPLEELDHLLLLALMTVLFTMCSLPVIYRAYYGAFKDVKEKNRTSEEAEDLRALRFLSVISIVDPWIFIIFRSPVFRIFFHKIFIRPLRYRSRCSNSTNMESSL
Experimental: (§1) The synthesis was carried out starting from commercially available 2-methyl indole or 2-trifluoromethyl indoles (11a-c), which on treatment with bromoacetonitrile provided intermediates (12a-c), which then were subjected to lithium aluminum hydride to reduce cyanide to amines. […] Synthesized derivatives were tested by using a cAMP-derived TR-FRET assay, at single concentration (1 μM) to observe a rightward shift of PGE2 (an EP2 agonist) concentration response curve in a C6G cell line that overexpresses human EP2 receptors.
Intracellular cAMP was measured with a cell-based homogeneous time-resolved fluorescence resonance energy transfer (TR-FRET) method (Cisbio Bioassays). […] Endogenous cAMP produced by cells competes with labeled cAMP for binding to the cAMP antibody and thus reduces the FRET signal. Cells stably expressing human DP1, EP2, EP4, or IP receptors were seeded into 384-well plates in 30 μl complete medium (4,000 cells/well) and grown overnight. The medium was carefully withdrawn and 10 μl Hanks' Buffered Salt Solution (HBSS) (Hyclone) containing 20 μM rolipram was added into the wells to block phosphodiesterases. The cells were incubated at room temperature for 0.5-1 h and then treated with vehicle or test compound for 10 min before addition of increasing concentrations of appropriate agonist: BW245C for DP1, PGE2 for EP2 and EP4, or iloprost for IP. The cells were incubated at room temperature for 40 min, then lysed in 10 μl lysis buffer containing the FRET acceptor cAMP-d2 and 1 min later another 10 μl lysis buffer with anti-cAMP-Cryptate was added. […] The FRET signal was expressed as: F665/F590×10^4.

C6-glioma cells = conditions: rat
Experimental: CC50 are average one measurement run in triplicate.
Several of compounds were examined against EP4 and IP receptors at single concentration of 10 μM.

human EP4 receptors = molecular target: T2, human EP4 receptors (Homo sapiens, UniProt P35408); assay: cell-based cAMP TR-FRET assay, EP4 (agonist PGE2); conditions: for Selective Index EP4/EP2 / potency estimated from few doses: Table 2; for potency estimated from few doses: extrapolated Schild KB from single concentration of 10 μM
T2 construct: expressed in transfected cells
Experimental: (§2) These derivatives were selected for testing against EP4 and IP receptors. Cell lines were created that overexpress EP4 receptors, or IP receptors on C6-glioma cells. A cAMP-derived TR-FRET assay was developed using agonists PGE2 (for EP4) and iloprost (for IP), similar to EP2 assay.
(§3) Intracellular cAMP was measured with a cell-based homogeneous time-resolved fluorescence resonance energy transfer (TR-FRET) method (Cisbio Bioassays). […] Endogenous cAMP produced by cells competes with labeled cAMP for binding to the cAMP antibody and thus reduces the FRET signal. Cells stably expressing human DP1, EP2, EP4, or IP receptors were seeded into 384-well plates in 30 μl complete medium (4,000 cells/well) and grown overnight. The medium was carefully withdrawn and 10 μl Hanks' Buffered Salt Solution (HBSS) (Hyclone) containing 20 μM rolipram was added into the wells to block phosphodiesterases. The cells were incubated at room temperature for 0.5-1 h and then treated with vehicle or test compound for 10 min before addition of increasing concentrations of appropriate agonist: BW245C for DP1, PGE2 for EP2 and EP4, or iloprost for IP. The cells were incubated at room temperature for 40 min, then lysed in 10 μl lysis buffer containing the FRET acceptor cAMP-d2 and 1 min later another 10 μl lysis buffer with anti-cAMP-Cryptate was added. After 60-90 min incubation at room temperature, the FRET signal was measured by an Envision 2103 Multilabel Plate Reader (PerkinElmer Life Sciences) with a laser excitation at 337 nm and dual emissions at 665 nm and 590 nm for d2 and Cryptate (50 s delay), respectively. The FRET signal was expressed as: F665/F590×10^4.

human IP receptors = molecular target: T3, human IP receptors (Homo sapiens, UniProt P43119); assay: cell-based cAMP TR-FRET assay, IP (agonist iloprost); conditions: for Selective Index (IP/EP2) / potency estimated from few doses: Table 2; for potency estimated from few doses: extrapolated Schild KB from single concentration of 10 μM
T3 construct: expressed in transfected cells
Experimental: as §2, §3

human EP2 receptors = molecular target: T4, human EP2 receptors (Homo sapiens, UniProt P43116); assay: cell-based cAMP TR-FRET assay, rightward shift of PGE2 concentration response curve (Schild KB), EP2; conditions: for mechanism of antagonism of EP2: Schild regression analysis
T4 construct: expressed in transfected cells
Experimental: KB value indicates the antagonist concentration required for a twofold rightward shift in the PGE2 dose-response curve. Thus, a lower KB value indicates a higher inhibitory potency.
as §1
A lower KB value indicates a higher inhibitory potency.
as §3

[1] = Table 2, average of 2-3 independent experiments in duplicate, read-out: KB EP2
[2] = Table 1, Schild KB from single antagonist concentration 1 μM, average of 2-3 measurements in duplicate, read-out: EP2 KB

T4 sequence (P43116 whole entry): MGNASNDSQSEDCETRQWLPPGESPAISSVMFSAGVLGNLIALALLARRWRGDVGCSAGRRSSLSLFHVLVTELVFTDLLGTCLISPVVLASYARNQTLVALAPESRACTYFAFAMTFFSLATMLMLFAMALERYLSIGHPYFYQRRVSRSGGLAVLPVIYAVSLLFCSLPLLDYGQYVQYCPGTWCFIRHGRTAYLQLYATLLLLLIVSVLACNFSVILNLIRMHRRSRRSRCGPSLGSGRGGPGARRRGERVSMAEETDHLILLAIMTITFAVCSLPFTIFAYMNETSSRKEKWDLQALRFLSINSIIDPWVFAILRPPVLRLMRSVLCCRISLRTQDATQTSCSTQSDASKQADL
T3 sequence (P43119 whole entry): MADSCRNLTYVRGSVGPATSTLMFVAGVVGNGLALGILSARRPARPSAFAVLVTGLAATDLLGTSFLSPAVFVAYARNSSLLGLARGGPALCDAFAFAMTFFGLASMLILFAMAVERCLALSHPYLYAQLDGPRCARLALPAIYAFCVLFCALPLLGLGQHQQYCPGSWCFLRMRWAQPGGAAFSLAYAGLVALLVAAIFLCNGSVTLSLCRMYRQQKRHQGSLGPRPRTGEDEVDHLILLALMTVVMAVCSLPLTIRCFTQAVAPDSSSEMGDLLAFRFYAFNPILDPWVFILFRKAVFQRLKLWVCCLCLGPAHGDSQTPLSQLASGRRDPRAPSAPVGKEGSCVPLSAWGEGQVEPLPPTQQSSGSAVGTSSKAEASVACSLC
T2 sequence (P35408 whole entry): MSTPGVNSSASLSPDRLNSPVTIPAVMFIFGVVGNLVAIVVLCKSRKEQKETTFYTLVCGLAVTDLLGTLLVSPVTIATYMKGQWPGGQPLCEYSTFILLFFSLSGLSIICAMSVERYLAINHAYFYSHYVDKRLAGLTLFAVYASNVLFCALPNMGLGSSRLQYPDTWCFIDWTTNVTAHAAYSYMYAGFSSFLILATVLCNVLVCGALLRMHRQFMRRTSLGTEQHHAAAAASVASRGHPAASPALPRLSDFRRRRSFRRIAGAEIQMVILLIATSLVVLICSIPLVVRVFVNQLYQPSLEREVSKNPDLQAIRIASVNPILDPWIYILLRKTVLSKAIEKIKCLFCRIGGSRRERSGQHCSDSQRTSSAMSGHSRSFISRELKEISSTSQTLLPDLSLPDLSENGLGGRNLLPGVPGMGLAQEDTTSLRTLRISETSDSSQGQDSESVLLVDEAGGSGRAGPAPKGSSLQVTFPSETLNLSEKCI

| SMILES | Selective Index (DP1/EP2) (human DP1 receptors; Table 2) | CC50 (C6-glioma cells) [µM] | Therapeutic Index (CC50/EP2 KB) (C6-glioma cells) | Selective Index EP4/EP2 (human EP4 receptors) | potency estimated from few doses (human EP4 receptors) [µM] | Selective Index (IP/EP2) (human IP receptors) | potency estimated from few doses (human IP receptors) [µM] | Kb (human DP1 receptors; Table 6, read-out: DP1 KB) [µM] | Kb (human EP2 receptors; Table 6, read-out: EP2 KB) [µM] | also measured |
| --- | --- | --- | --- | --- | --- | --- | --- | --- | --- | --- |
| Cc1cc2ccccc2n1CCNC(=O)c1ccc(N2CCC(O)CC2)cc1 [Compound 7w] | 172 | 163 | 6,082 | 2,629 | 70.3 | 675 | 18.1 | – | – | concentration showing an effect on cell viability (C6-glioma cells): > 100 µM |
| CCN(CC)c1ccc(C(=O)NCCn2c(C)cc3ccccc32)cc1 [Compound 6f, 4-(Diethylamino)-N-(2-(2-methyl-1H-indol-1-yl)ethyl)benzamide] | 1,220 | 320 | 118,520 | 11,590 | 31.3 | 2,960 | 8 | – | – | selectivity against DP1 (human DP1 receptors): > 1200 fold; Kb (human DP1 receptors; Table 2, read-out: KB DP1): 3.19 µM; fold improved/higher EP2 potency in comparison to 6b (human EP2 receptors): ~8 fold; mechanism of antagonism of EP2 (human EP2 receptors): competitive; Kb (human EP2 receptors; [1]): 0.0027 µM; Kb (human EP2 receptors; single concentration values, read-out: EP2 potency (Schild KB)): ~0.01 µM; selectivity against the IP receptor (human IP receptors; EP2 over IP): ~3000 fold |
| Cc1cc2ccccc2n1CCNC(=O)c1ccc(N2CCOCC2)cc1 [Compound 7p, N-(2-(2-Methyl-1H-indol-1-yl)ethyl)-4-morpholinobenzamide] | 533 | 289 | 30,100 | 2,190 | 21 | 206 | 1.98 | – | – | Kb (human DP1 receptors; Table 2, read-out: KB DP1): 5.21 µM; fold improved/higher EP2 potency in comparison to 6b (human EP2 receptors): about 2.3 fold; mechanism of antagonism of EP2 (human EP2 receptors): competitive; Kb (human EP2 receptors; [2]): 0.0096 µM |
| Cc1[nH]c2ccccc2c1CCNC(=O)c1ccc(N2CCOCC2)cc1 [Compound 9c] | – | 311 | – | – | – | – | – | – | – | – |
| Cc1cc2ccccc2n1CCNC(=O)c1ccc(N2CCCC2)cc1 [Compound 7j, N-(2-(2-Methyl-1H-indol-1-yl)ethyl)-4-(pyrrolidin-1-yl)benzamide] | >516 | 337 | 16,120 | 1,160 | 28.7 | 570 | 14.2 | – | – | selectivity against DP1 (human DP1 receptors): 516 fold; Kb (human DP1 receptors; Table 2, read-out: KB DP1): > 10 µM; Kb (human EP2 receptors; [1]): 0.0247 µM |
| Cc1cc2ccccc2n1CCNC(=O)c1cc(-c2ccc(F)cc2)n[nH]1 [TG7-245] | – | – | – | – | – | – | – | 140 | 0.0227 | – |
| COc1ccc(C(=O)NCCn2c(C)cc3ccccc32)cc1OC [Compound 6b] | – | – | – | – | – | – | – | 1.35 | 0.0267 | Kb (human EP2 receptors; [2]): 0.0223 µM |
| O=C(NCCn1c(C(F)(F)F)cc2ccccc21)c1ccc(N2CCC(C(=O)O)CC2)cc1 [TG8-46] | – | – | – | – | – | – | – | 1.06 | 0.413 | – |
| Cc1cc2ccccc2n1CCNC(=O)c1ccc(N2CCCCC2)cc1 [Compound 7k, N-(2-(2-Methyl-1H-indol-1-yl)ethyl)-4-(piperidin-1-yl)benzamide] | 273 | 315 | 33,510 | 3,210 | 30.2 | 360 | 3.4 | – | – | Kb (human DP1 receptors; Table 2, read-out: KB DP1): 2.57 µM; fold improved/higher EP2 potency in comparison to 6b (human EP2 receptors): about 2.3 fold; Kb (human EP2 receptors; [2]): 0.0094 µM |
| C#Cc1ccc(C(=O)NCCn2c(C)cc3ccccc32)cc1 [TG8-52] | – | – | – | – | – | – | – | 0.609 | 0.0775 | – |
| CCCN(CCC)c1ccc(C(=O)NCCn2c(C)cc3ccccc32)cc1 [Compound 6g] | 298 | 332 | 28,130 | 1320 | 15.5 | 95 | 1.12 | – | – | – |
| Cc1cc2ccccc2n1CCNC(=O)c1ccc2c(c1)n(C)c(=O)n2C [Compound 8a, 1,3-Dimethyl-N-(2-(2-methyl-1H-indol-1-yl)ethyl)-2-oxo-2,3-dihydro-1H-benzo[d]imidazole-5-carboxamide] | 300 | 154 | 7,370 | 1730 | 36.1 | 1200 | 25.2 | – | – | Kb (human DP1 receptors; Table 2, read-out: KB DP1): 6.29 µM; concentration showing an effect on cell viability (C6-glioma cells): > 100 µM; Kb (human EP2 receptors; [2]): 0.0209 µM |
| Cc1cc2ccccc2n1CCNC(=O)c1ccc(N=[N+]=[N-])cc1 [TG7-297] | – | – | – | – | – | – | – | 1.89 | 0.0894 | – |
| CCOC(=O)C1CCN(c2ccc(C(=O)NCCn3c(C(F)(F)F)cc4ccccc43)cc2)CC1 [TG8-42] | – | – | – | – | – | – | – | 3.24 | 2.74 | – |
| Cc1cc2ccccc2n1CCNC(=O)c1ccc(-c2cn(COCc3ccccc3)nn2)cc1 [TG8-54] | – | – | – | – | – | – | – | 3.39 | 0.164 | – |
| Cc1cc2cc(Br)ccc2n1CCNC(=O)c1ccc(N2CCOCC2)cc1 [TG7-300] | – | – | – | – | – | – | – | 18.9 | 0.247 | – |
| Cc1cc2ccccc2n1CCNC(=O)c1ccc(-n2cc(CO)nn2)cc1 [TG8-60] | – | – | – | – | – | – | – | 2.42 | 0.0282 | – |
| Cc1cc2ccccc2n1CCNC(=O)c1ccc(OCCO)cc1 [TG8-12] | – | – | – | – | – | – | – | 2.74 | 0.133 | – |
| Cc1[nH]c2ccccc2c1CCNC(=O)c1ccc(N(C)C)cc1 [Compound 8z] | – | 320 | – | – | 16.4 | – | 63.1 | – | – | – |
| O=C(NCCn1c(C(F)(F)F)cc2ccccc21)c1ccc(-c2nnn[nH]2)cc1 [TG8-47] | – | – | – | – | – | – | – | 0.795 | 1.11 | – |
| Cc1cc2ccccc2n1CCNC(=O)c1ccc(OCCO)c(OCCO)c1 [TG8-3] | – | – | – | – | – | – | – | 62.9 | 0.271 | – |
| Cc1cc2ccccc2n1CCNC(=O)c1ccc(N2CCCCCC2)cc1 [Compound 7o] | 342 | 327 | 14,470 | 1,045 | 23.6 | 375 | 8.5 | – | – | – |
| Cc1cc2ccccc2n1CCNC(=O)c1cnc(N2CCC(CO)CC2)nc1 [TG8-59] | – | – | – | – | – | – | – | 5.85 | 0.159 | – |
| Cc1cc2ccccc2n1CCNC(=O)c1ccc(N2CCN(C)CC2)c(F)c1 [Compound 7u] | 22 | 300 | 6,660 | 106 | 4.76 | 1,420 | 64 | – | – | selectivity over EP4 (human EP4 receptors; EP2 over EP4): 100 fold |
| Cc1cc2ccccc2n1CCNC(=O)c1ccc(-c2cn(Cc3ccccc3)nn2)cc1 [TG8-55] | – | – | – | – | – | – | – | 6.96 | 0.305 | – |
| Cc1cc2ccccc2n1C1CCCN(C(=O)c2ccc(N3CCOCC3)cc2)C1 (centres unmarked) [TG7-292] | – | – | – | – | – | – | – | – | 1.79 | DP1 KB (human DP1 receptors; Table 6): Inactive |
| Cc1cc2ccccc2n1CCNC(=O)c1cc(-c2ccccc2)no1 [TG7-242] | – | – | – | – | – | – | – | – | 0.0295 | DP1 KB (human DP1 receptors; Table 6): Inactive |

— patent US11077120B2, “Prostaglandin receptor EP2 antagonists, derivatives, compositions, and uses related thereto” (Emory University, priority 2014, dated 2021)
